Experimental data published in patent US7855202B2, “Imidazopyridine derivatives as A2B adenosine receptor antagonists” (Laboratorios Almirall, S.A., priority 2005, dated 2010).
pKi: −log10 of the molar value.

biological target: T1, human A2B receptor (Homo sapiens, UniProt P29275); assay: Adenosine 2B receptor subtype competition radioligand binding assay ([3H]-DPCPX, membranes of HEK293 cells); settings: binding activity, 35 nM [3H]-DPCPX, A2B membranes from HEK293 cells
T1 construct: membranes prepared from them
T1 sequence (P29275 1-332): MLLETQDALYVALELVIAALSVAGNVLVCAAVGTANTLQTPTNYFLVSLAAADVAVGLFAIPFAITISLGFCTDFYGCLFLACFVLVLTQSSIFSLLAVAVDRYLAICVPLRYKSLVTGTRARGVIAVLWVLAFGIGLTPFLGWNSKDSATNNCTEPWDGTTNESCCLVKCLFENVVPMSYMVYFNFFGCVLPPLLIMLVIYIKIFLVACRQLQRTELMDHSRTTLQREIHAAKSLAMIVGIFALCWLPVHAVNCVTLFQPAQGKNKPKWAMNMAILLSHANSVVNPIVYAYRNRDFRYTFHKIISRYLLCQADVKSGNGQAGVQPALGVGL
Experimental: Adenosine 2B Receptor Subtype Competition Radioligand Binding Assay
A2B membranes were prepared from HEK293 cells stably expressing the human A2B receptor that were purchased from Euroscreen (ES-013-C). Competition assays were carried out incubating in polypropylene 96 well-plates (no 267245, NUNC) containing 2 μl of either 1% DMSO solution, test compound or 100 μM 5′NECA (SIGMA E-2387) for non-specific binding, 100 μg of A2B-membranes (prepared in Tris-HCl 50 mM pH 6.5, MgCl2 10 mM, EDTA 1 mM, benzamidine 0.1 mM; buffer A) and 35 nM [^3H]-DPCPX (TRK1064, 128 Ci/mmol, Amersham), in a total volume of 200 μl of buffer A+2 UI/ml adenosine deaminase, for 60 minutes at room temperature. At the end of the incubation, samples were transferred to a GF/C filter plates (Milipore MAFCNOB50) pretreated for 15 min. with 250 μl of Tris-HCl 50 mM pH 6.5 (Buffer B). Samples were then filtered 4 times with 250 μl of buffer B. Samples were counted using 30 μl of Hisafe II (Perkin Elmer) in a Trilux counter.

| SMILES | pKi |
| --- | --- |
| Fc1ccc(Cc2nc3cc(-c4ccncc4F)c(-c4cccnc4)nc3[nH]2)cc1 [Example 16, 2-(4-Fluorobenzyl)-6-(3-fluoropyridin-4-yl)-5-pyridin-3-yl-3H-imidazo[4,6-b]pyridine] | 7.62 |
| O=C(O)c1ccc(-c2nc3cc(-c4ccncc4F)c(-c4cccnc4)nc3[nH]2)cc1 [Example 11, 4-[6-(3-Fluoropyridin-4-yl)-5-pyridin-3-yl-3H-imidazo[4,5-b]pyridin-2-yl]benzoic acid] | 8.10 |
| O=c1[nH]c2cc(-c3ccncc3F)c(-c3ncco3)nc2[nH]1 [Example 32, 6-(3-Fluoropyridin-4-yl)-5-(1,3-oxazol-2-yl)-1,3-dihydro-2H-imidazo[4,5-b]pyridin-2-one] | 7.62 |
| Cc1ccc(-c2nc3cc(-c4ccncc4F)c(-c4cccnc4)nc3[nH]2)cc1F [Example 37, 2-(3-Fluoro-4-methylphenyl)-6-(3-fluoropyridin-4-yl)-5-pyridin-3-yl-3H-imidazo[4,5-b]pyridine] | 8.66 |
| Fc1ccc(-c2nc3cc(-c4c(F)cncc4F)c(-c4cccnc4)nc3[nH]2)cc1 [Example 65, 6-(3,5-Difluoropyridin-4-yl)-2-(4-fluorophenyl)-5-pyridin-3-yl-3H-imidazo[4,5-b]pyridine] | 8.55 |
| Fc1cccc(-c2nc3cc(-c4ccncc4F)c(-c4cccnc4)nc3[nH]2)c1 [Example 38, 2-(3-Fluorophenyl)-6-(3-fluoropyridin-4-yl)-5-pyridin-3-yl-3H-imidazo[4,6-b]pyridine] | 8.55 |
| Cn1cncc1-c1nc2cc(-c3ccncc3F)c(-c3cccnc3)nc2[nH]1 [Example 46, 6-(3-Fluoropyridin-4-yl)-2-(1-methyl-1H-imidazol-5-yl)-5-pyridin-3-yl-3H-imidazo[4,5-b]pyridine] | 8.02 |
| CN(C)c1ccc(-c2nc3cc(-c4ccncc4F)c(-c4cccnc4)nc3[nH]2)cc1 [Example 7, N-{4-[6-(3-Fluoropyridin-4-yl)-5-pyridin-3-yl-3H-imidazo[4,5-b]pyridin-2-yl]phenyl}-N,N-dimethylamine] | 8.77 |
| Fc1cnccc1-c1cc2nc(-c3ccncc3)[nH]c2nc1-c1cccnc1 [Example 12, 6-(3-Fluoropyridin-4-yl)-5-pyridin-3-yl-2-pyridin-4-yl-3H-imidazo[4,5-b]pyridine] | 8.74 |
| Fc1cnccc1-c1cc2nc(-c3cccnc3)[nH]c2nc1-c1cccnc1 [Example 39, 6-(3-Fluoropyridin-4-yl)-2,5-dipyridin-3-yl-3H-imidazo[4,5-b]pyridine] | 8.42 |
| COc1ccc(-c2nc3cc(-c4ccncc4F)c(-c4cccnc4)nc3[nH]2)cc1 [Example 6, 6-(3-Fluoropyridin-4-yl)-2-(4-methoxyphenyl)-6-pyridin-3-yl-3H-imidazo[4,5-b]pyridine] | 9.10 |
| O=c1[nH]c2cc(-c3c(F)cncc3F)c(-c3cccnc3)nc2[nH]1 [Example 67, 6-(3,5-Difluoropyridin-4-yl)-5-pyridin-3-yl-1,3-dihydro-2H-imidazo[4,5-b]pyridin-2-one] | 7.59 |
| O=C(O)c1ccc(-c2nc3cc(-c4c(F)cncc4F)c(-c4cccnc4)nc3[nH]2)cc1 [Example 66, 4-[6-(3,5-Difluoropyridin-4-yl)-5-pyridin-3-yl-3H-imidazo[4,5-b]pyridin-2-yl]benzoic acid] | 7.64 |
| O=c1[nH]c2cc(-c3ccncc3)c(-c3ccncc3F)nc2[nH]1 [Example 23, 5-(3-Fluoropyridin-4-yl)-6-pyridin-4-yl-1,3-dihydro-2H-imidazo[4,5-b]pyridin-2-one] | 8.15 |
